Laboratory results published in publication PMC4232785, “RP-HPTLC Retention Data in Correlation with the In-silico ADME Properties of a Series of s-triazine Derivatives” (Iranian Journal of Pharmaceutical Research : IJPR, 2014).

Test: RP-HPTLC retention (RM0, lipophilicity parameter) on RP-18W/UV254 plates
Type: physicochemical
Protocol: Precoated RP-18W/UV254 plates (Macherey-Nagel GmbH and Co., Düren, Germany) were used for RP HPTLC analysis. Investigated solvent mixtures used as mobile phases: acetone-water (φ = 0.5 - 0.8; v/v), acetonitrile-water (φ = 0.5 - 0.9; v/v), methanol-water (φ = 0.65 - 0.95; v/v), 2-propanol-water (φ = 0.4 - 0.7; v/v), tetrahydrofuran-water (φ = 0.5 - 0.75; v/v).
The investigated compounds were dissolved in an appropriate solvent, methanol, 1 mg mL^-1) and the solutions (0.2 μL) were separately spotted into the plates. All the reagents used were of analytical purity. The plates were developed by the ascending technique at room temperature without previous saturation of the chamber with mobile phase. All measurements were carried out at ambient temperature. After drying of the plates, the spots were visualized under UV light at λ = 254 nm. RF values were calculated as average from three measurements for each solute-mobile phase combination. For subsequent calculations mean RM values were used; these were calculated by using the formula:
Equation (1) RM=log(1/RF-1)
The calculated RM values for different concentrations of organic solvent were used to check the linearity of their relationship with the volume fraction of organic modifier according to the equation ([23]):
Where φ is the volume fraction of organic solvent in the mobile phase, RM^0 is the intercept obtained by extrapolation to φ = 0% of modifier, and S is the slope of the linear plot. Equations (1) and (2) served for deriving data for further QSAR studies.

[1] = RP-18W/UV254, 2-propanol – water (φ = 0.4 - 0.7)
[2] = RP-18W/UV254, acetone – water (φ = 0.5 - 0.8)
[3] = RP-18W/UV254, acetonitrile – water (φ = 0.5 - 0.9)
[4] = RP-18W/UV254, methanol – water (φ = 0.65 - 0.95)
[5] = RP-18W/UV254, tetrahydrofuran - water (φ = 0.5 - 0.75)

Row | RM^0 (retention parameter, intercept at φ = 0% modifier) [1] | RM^0 (retention parameter, intercept at φ = 0% modifier) [2] | RM^0 (retention parameter, intercept at φ = 0% modifier) [3] | RM^0 (retention parameter, intercept at φ = 0% modifier) [4] | RM^0 (retention parameter, intercept at φ = 0% modifier) [5] | SMILES
1 | 2.617 | 3.839 | 2.887 | 3.976 | 3.538 | CC(Nc1nc(Cl)nc(NC(C)c2ccc(Cl)cc2)n1)c1ccc(Cl)cc1 (centres unmarked) [I.3]
2 | 2.183 | 3.743 | 2.388 | 3.181 | 3.289 | CC1(Nc2nc(Cl)nc(NC3(C)CCCC3)n2)CCCC1 [II.1]
3 | 2.384 | 3.935 | 2.753 | 3.320 | 3.401 | CC1(Nc2nc(Cl)nc(NC3(C)CCCCC3)n2)CCCCC1 [II.2]
4 | 2.525 | 3.580 | 2.786 | 3.188 | 3.567 | Cc1ccc(C(C)Nc2nc(Cl)nc(NC(C)c3ccc(C)cc3)n2)cc1 (centres unmarked) [I.2]
5 | 2.764 | 4.303 | 2.896 | 4.407 | 3.351 | CC(Nc1nc(Cl)nc(NC(C)c2ccc(Br)cc2)n1)c1ccc(Br)cc1 (centres unmarked) [I.4]
6 | 3.013 | 4.218 | 3.000 | 4.530 | 4.071 | CC1(Nc2nc(Cl)nc(NC3(C)CCCCCC3)n2)CCCCCC1 [II.3]
7 | 1.900 | 3.185 | 2.110 | 2.457 | 3.439 | CC(Nc1nc(Cl)nc(NC(C)c2ccccc2)n1)c1ccccc1 (centres unmarked) [I.1]
8 | 2.769 | 4.626 | 3.284 | 3.998 | 3.611 | CN(c1nc(Cl)nc(N(C)C2CCCCC2)n1)C1CCCCC1 [III.2]
9 | 2.691 | 4.019 | 3.101 | 3.980 | 3.387 | Clc1nc(NC2CCCCC2)nc(N(c2ccccc2)C2CCCCC2)n1 [III.3]
10 | 1.779 | 2.257 | 1.956 | 1.756 | 2.222 | CC1(Nc2nc(Cl)nc(Cl)n2)CCCCCC1 [IV.3]
11 | 1.118 | 1.672 | 1.497 | 1.526 | 1.733 | CC1(Nc2nc(Cl)nc(Cl)n2)CCCC1 [IV.1]
12 | 2.747 | 4.693 | 3.556 | 5.295 | 3.902 | Clc1nc(N(c2ccccc2)C2CCCCC2)nc(N(c2ccccc2)C2CCCCC2)n1 [III.4]
13 | 2.251 | 4.118 | 2.356 | 3.440 | 3.426 | Clc1nc(NC2CCCCC2)nc(NC2CCCCC2)n1 [III.1]
